Among the data in US20250163104A1, “MACROCYCLIC IMMUNOMODULATORS” (priority 2021, published 2025) are IC50 values, retold here.

Where a SMILES comes first, the peptide text is derived from it. Bridges are numbered along the chain shown (N, C = ends). [ ]: non-standard residue; d: D form. ξ: configuration not given here. Bip = N[C@@H](Cc1ccc(-c2ccccc2)cc1)C(=O)O; Phe(3-Me) = Cc1cccc(C[C@H](N)C(=O)O)c1; 3Pal = N[C@@H](Cc1cccnc1)C(=O)O; 4Pal = N[C@@H](Cc1ccncc1)C(=O)O; Cha = N[C@@H](CC1CCCCC1)C(=O)O; Ile(3ξ) = CCC(C)[C@H](N)C(=O)O; Orn = NCCC[C@H](N)C(=O)O; Dab = NCC[C@H](N)C(=O)O; Dap = NC[C@H](N)C(=O)O

For the assay, the target named is T1, human PD-1 / PD-L1-Ig binding on Jurkat cell line over-expressing human PD-1 (Jurkat-PD-1) (Homo sapiens, UniProt Q15116).
T1 construct: expressed in transfected cells; host or cells: Jurkat
T1 sequence (Q15116 25-288): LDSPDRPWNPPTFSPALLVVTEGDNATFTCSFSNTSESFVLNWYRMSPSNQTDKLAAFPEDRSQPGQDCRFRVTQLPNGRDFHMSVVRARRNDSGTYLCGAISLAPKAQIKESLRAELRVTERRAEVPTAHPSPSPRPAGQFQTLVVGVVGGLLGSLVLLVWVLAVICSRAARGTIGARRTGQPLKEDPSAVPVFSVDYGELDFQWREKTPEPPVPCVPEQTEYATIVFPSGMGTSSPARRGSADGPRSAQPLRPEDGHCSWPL
As to the kind of experiment: Jurkat-PD-1 Cell Binding High-Content Screening Assay (CBA). The format is cell-based. The settings on record: Jurkat-PD-1 cells, PE-labeled PD-L1-Ig 20 nM final; read-out: Jurkat HPD1_PDL1 IC50. A digest of the protocol:
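Cell-bound PE-labeled PD-L1-Ig (20 nM final, 1 h) measured by high-content imaging after fixation and Hoechst 33342 counterstain. Compound was applied first for 2 h at 37° C. to Jurkat cells over-expressing human PD-1 in DMEM with 10% FCS.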
On to `CCC(C)[C@@H]1NC(=O)[C@H](Cc2ccc(-c3ccccc3)cc2)NC(=O)[C@H](C(C)C)NC(=O)[C@H](Cc2cccc(C)c2)NC(=O)[C@H](CC(=O)O)NC(=O)[C@H](Cc2ccc(-c3cccc(C(=O)O)c3)cc2)NC(=O)[C@H](Cc2ccc(OCC(=O)O)cc2)NC(=O)CSC[C@@H](C(=O)N[C@@H](C)C(N)=O)NC(=O)[C@H]([C@@H](C)O)NC(=O)[C@H](C(C)C)NC(=O)[C@H](CC2CCCCC2)NC(=O)[C@H](CCN)NC(=O)[C@@H](CC(C)C)NC(=O)[C@H](CCCN)NC1=O` (stereo partly shown) [Compound 2225], for which the IC50 stood at 182 nM. Consider `CCC(C)[C@@H]1NC(=O)[C@H](Cc2ccc(-c3ccccc3)cc2)NC(=O)[C@H](C(C)C)NC(=O)[C@H](Cc2cccc(C)c2)NC(=O)[C@H](CC(=O)O)NC(=O)[C@H](Cc2ccc(-c3cccc(C(=O)O)c3)cc2)NC(=O)[C@H](Cc2ccncc2)NC(=O)CSC[C@@H](C(=O)N[C@@H](C)C(N)=O)NC(=O)[C@H]([C@@H](C)O)NC(=O)[C@H](C(C)C)NC(=O)[C@H](CC2CCCCC2)NC(=O)[C@H](CCN)NC(=O)[C@@H](CC(C)C)NC(=O)[C@H](CCCN)NC1=O` (stereo partly shown) [Compound 2226], for which the IC50 came out at 25.4 nM.

For `CCC(C)[C@@H]1NC(=O)[C@H](Cc2ccc(-c3ccccc3)cc2)NC(=O)[C@H](C(C)C)NC(=O)[C@H](Cc2c[nH]c3ccccc23)NC(=O)[C@H](CC(=O)O)NC(=O)[C@H](Cc2cccnc2)NC(=O)[C@H](CC(N)=O)NC(=O)CSC[C@@H](C(=O)N[C@@H](C)C(N)=O)NC(=O)[C@H]([C@@H](C)O)NC(=O)[C@H](C(C)C)NC(=O)[C@H](CC2CCCCC2)NC(=O)[C@H](CCN)NC(=O)[C@@H](CC(C)C)NC(=O)[C@H](CCCN)NC1=O` (stereo partly drawn) [Compound 2228] ({CH2CO}-N[3Pal]DWV[Bip][Ile(3ξ)][Orn][dL][Dab][Cha]VTCA-NH2; thioether N-14), the IC50 came to 16.1 nM. Turning to `CCC(C)[C@@H]1NC(=O)[C@H](Cc2ccc(-c3ccccc3)cc2)NC(=O)[C@H](C(C)C)NC(=O)[C@H](Cc2c[nH]c3ccccc23)NC(=O)[C@H](CC(=O)O)NC(=O)[C@H](Cc2cccnc2)NC(=O)[C@H](Cc2ccccc2)NC(=O)CSC[C@@H](C(=O)N[C@@H](C)C(N)=O)NC(=O)[C@H]([C@@H](C)O)NC(=O)[C@H](C(C)C)NC(=O)[C@H](CC2CCCCC2)NC(=O)[C@H](CCN)NC(=O)[C@@H](CC(C)C)NC(=O)[C@H](CCCN)NC1=O` (stereo partly drawn) [Compound 2229] ({CH2CO}-F[3Pal]DWV[Bip][Ile(3ξ)][Orn][dL][Dab][Cha]VTCA-NH2; thioether N-14), the IC50 stood at 21.5 nM. As to `CCC(C)[C@@H]1NC(=O)[C@H](Cc2ccc(-c3ccccc3)cc2)NC(=O)[C@H](C(C)C)NC(=O)[C@H](Cc2c[nH]c3ccccc23)NC(=O)[C@H](CC(=O)O)NC(=O)[C@H](Cc2cccnc2)NC(=O)[C@H](CN)NC(=O)CSC[C@@H](C(=O)N[C@@H](C)C(N)=O)NC(=O)[C@H]([C@@H](C)O)NC(=O)[C@H](C(C)C)NC(=O)[C@H](CC2CCCCC2)NC(=O)[C@H](CCN)NC(=O)[C@@H](CC(C)C)NC(=O)[C@H](CCCN)NC1=O` (stereo partly drawn) [Compound 2230] ({CH2CO}-[Dap][3Pal]DWV[Bip][Ile(3ξ)][Orn][dL][Dab][Cha]VTCA-NH2; thioether N-14), the IC50 amounted to 16.1 nM.

With `CCC(C)[C@@H]1NC(=O)[C@H](Cc2ccc(-c3ccccc3)cc2)NC(=O)[C@H](C(C)C)NC(=O)[C@H](Cc2c[nH]c3ccccc23)NC(=O)[C@H](CC(=O)O)NC(=O)[C@H](Cc2cccnc2)NC(=O)[C@H](Cc2ccncc2)NC(=O)CSC[C@@H](C(=O)N[C@@H](C)C(N)=O)NC(=O)[C@H]([C@@H](C)O)NC(=O)[C@H](C(C)C)NC(=O)[C@H](CC2CCCCC2)NC(=O)[C@H](CCN)NC(=O)[C@@H](CC(C)C)NC(=O)[C@H](CCCN)NC1=O` (stereo partly drawn) [Compound 2232] ({CH2CO}-[4Pal][3Pal]DWV[Bip][Ile(3ξ)][Orn][dL][Dab][Cha]VTCA-NH2; thioether N-14), the IC50 was 13.6 nM.

Consider `CCC(C)[C@@H]1NC(=O)[C@H](Cc2ccc(-c3ccccc3)cc2)NC(=O)[C@H](C(C)C)NC(=O)[C@H](Cc2cccc(C)c2)NC(=O)[C@H](CC(=O)O)NC(=O)[C@H](Cc2cccnc2)NC(=O)[C@H](CC(N)=O)NC(=O)CSC[C@@H](C(=O)N[C@@H](C)C(N)=O)NC(=O)[C@H]([C@@H](C)O)NC(=O)[C@H](C(C)C)NC(=O)[C@H](CC2CCCCC2)NC(=O)[C@H](CCN)NC(=O)[C@@H](CC(C)C)NC(=O)[C@H](CCCN)NC1=O` (stereo partly drawn) [Compound 2233] ({CH2CO}-N[3Pal]D[Phe(3-Me)]V[Bip][Ile(3ξ)][Orn][dL][Dab][Cha]VTCA-NH2; thioether N-14), for which the IC50 turned out to be 12 nM. With `CCC(C)[C@@H]1NC(=O)[C@H](Cc2ccc(-c3ccccc3)cc2)NC(=O)[C@H](C(C)C)NC(=O)[C@H](Cc2cccc(C)c2)NC(=O)[C@H](CC(=O)O)NC(=O)[C@H](Cc2cccnc2)NC(=O)[C@H](Cc2ccccc2)NC(=O)CSC[C@@H](C(=O)N[C@@H](C)C(N)=O)NC(=O)[C@H]([C@@H](C)O)NC(=O)[C@H](C(C)C)NC(=O)[C@H](CC2CCCCC2)NC(=O)[C@H](CCN)NC(=O)[C@@H](CC(C)C)NC(=O)[C@H](CCCN)NC1=O` (stereo partly drawn) [Compound 2234] ({CH2CO}-F[3Pal]D[Phe(3-Me)]V[Bip][Ile(3ξ)][Orn][dL][Dab][Cha]VTCA-NH2; thioether N-14) the figure was 70.8 nM; with `CCC(C)[C@@H]1NC(=O)[C@H](Cc2ccc(-c3ccccc3)cc2)NC(=O)[C@H](C(C)C)NC(=O)[C@H](Cc2cccc(C)c2)NC(=O)[C@H](CC(=O)O)NC(=O)[C@H](Cc2cccnc2)NC(=O)[C@H](CN)NC(=O)CSC[C@@H](C(=O)N[C@@H](C)C(N)=O)NC(=O)[C@H]([C@@H](C)O)NC(=O)[C@H](C(C)C)NC(=O)[C@H](CC2CCCCC2)NC(=O)[C@H](CCN)NC(=O)[C@@H](CC(C)C)NC(=O)[C@H](CCCN)NC1=O` (stereo partly shown) [Compound 2235], 9.1 nM. Take `CCC(C)[C@@H]1NC(=O)[C@H](Cc2ccc(-c3ccccc3)cc2)NC(=O)[C@H](C(C)C)NC(=O)[C@H](Cc2cccc(C)c2)NC(=O)[C@H](CC(=O)O)NC(=O)[C@H](Cc2cccnc2)NC(=O)[C@H](Cc2ccncc2)NC(=O)CSC[C@@H](C(=O)N[C@@H](C)C(N)=O)NC(=O)[C@H]([C@@H](C)O)NC(=O)[C@H](C(C)C)NC(=O)[C@H](CC2CCCCC2)NC(=O)[C@H](CCN)NC(=O)[C@@H](CC(C)C)NC(=O)[C@H](CCCN)NC1=O` (stereo partly shown) [Compound 2237]: the IC50 was determined as 22.8 nM. On to `CCC(C)[C@@H]1NC(=O)[C@H](Cc2ccc(-c3ccccc3)cc2)NC(=O)[C@H](C(C)C)NC(=O)[C@H](Cc2c[nH]c3ccccc23)NC(=O)[C@H](CC(=O)O)NC(=O)[C@H](Cc2ccncc2)NC(=O)[C@H](Cc2ccncc2)NC(=O)CSC[C@@H](C(=O)N[C@@H](C)C(N)=O)NC(=O)[C@H]([C@@H](C)O)NC(=O)[C@H](C(C)C)NC(=O)[C@H](CC2CCCCC2)NC(=O)[C@H](CCN)NC(=O)[C@@H](CC(C)C)NC(=O)[C@H](CCCN)NC1=O` (stereo partly drawn) [Compound 2238] ({CH2CO}-[4Pal][4Pal]DWV[Bip][Ile(3ξ)][Orn][dL][Dab][Cha]VTCA-NH2; thioether N-14), for which the IC50 came to 18.2 nM. Take `CC[C@H](C)[C@@H]1NC(=O)[C@H](Cc2ccc(-c3ccccc3)cc2)NC(=O)[C@H](C(C)C)NC(=O)[C@H](Cc2cccc(C)c2)NC(=O)[C@H](CC(=O)O)NC(=O)[C@H](Cc2ccc(N=[N+]=[N-])cc2)NC(=O)[C@H](Cc2ccncc2)NC(=O)CSC[C@@H](C(=O)N[C@@H](C)C(N)=O)NC(=O)[C@H]([C@@H](C)O)NC(=O)[C@H](C(C)C)NC(=O)[C@H](CC2CCCCC2)NC(=O)[C@H](CCN)NC(=O)[C@@H](CC(C)C)NC(=O)[C@H](CCCN)NC1=O` [Compound 2240]: the IC50 turned out to be 259 nM. For `CCC(C)[C@@H]1NC(=O)[C@H](Cc2ccc(-c3ccccc3)cc2)NC(=O)[C@H](C(C)C)NC(=O)[C@H](Cc2cc(C)ccc2C)NC(=O)[C@H](CC(=O)O)NC(=O)[C@H](Cc2ccc(OCC(=O)O)cc2)NC(=O)[C@H](CN)NC(=O)CSC[C@@H](C(=O)N[C@@H](C)C(N)=O)NC(=O)[C@H]([C@@H](C)O)NC(=O)[C@H](C(C)C)NC(=O)[C@H](CC2CCCCC2)NC(=O)[C@H](CCN)NC(=O)[C@@H](CC(C)C)NC(=O)[C@H](CCCN)NC1=O` (stereo partly shown) [Compound 2241], the IC50 was 32.4 nM.

Consider `CCC(C)[C@@H]1NC(=O)[C@H](Cc2ccc(-c3ccccc3)cc2)NC(=O)[C@H](C(C)C)NC(=O)[C@H](Cc2cccc(C)c2C)NC(=O)[C@H](CC(=O)O)NC(=O)[C@H](Cc2ccc(OCC(=O)O)cc2)NC(=O)[C@H](CN)NC(=O)CSC[C@@H](C(=O)N[C@@H](C)C(N)=O)NC(=O)[C@H]([C@@H](C)O)NC(=O)[C@H](C(C)C)NC(=O)[C@H](CC2CCCCC2)NC(=O)[C@H](CCN)NC(=O)[C@@H](CC(C)C)NC(=O)[C@H](CCCN)NC1=O` (stereo partly shown) [Compound 2242], for which the IC50 is 10.3 nM. As to `CCC(C)[C@@H]1NC(=O)[C@H](Cc2ccc(-c3ccccc3)cc2)NC(=O)[C@H](C(C)C)NC(=O)[C@H](Cc2cccc(C)c2F)NC(=O)[C@H](CC(=O)O)NC(=O)[C@H](Cc2ccc(OCC(=O)O)cc2)NC(=O)[C@H](CN)NC(=O)CSC[C@@H](C(=O)N[C@@H](C)C(N)=O)NC(=O)[C@H]([C@@H](C)O)NC(=O)[C@H](C(C)C)NC(=O)[C@H](CC2CCCCC2)NC(=O)[C@H](CCN)NC(=O)[C@@H](CC(C)C)NC(=O)[C@H](CCCN)NC1=O` (stereo partly shown) [Compound 2243], the IC50 was found to be 16.2 nM. Then `CCC(C)[C@@H]1NC(=O)[C@H](Cc2ccc(-c3ccccc3)cc2)NC(=O)[C@H](C(C)C)NC(=O)[C@H](Cc2ccc(F)c(C)c2)NC(=O)[C@H](CC(=O)O)NC(=O)[C@H](Cc2ccc(OCC(=O)O)cc2)NC(=O)[C@H](CN)NC(=O)CSC[C@@H](C(=O)N[C@@H](C)C(N)=O)NC(=O)[C@H]([C@@H](C)O)NC(=O)[C@H](C(C)C)NC(=O)[C@H](CC2CCCCC2)NC(=O)[C@H](CCN)NC(=O)[C@@H](CC(C)C)NC(=O)[C@H](CCCN)NC1=O` (stereo partly shown) [Compound 2244], with 32.9 nM.

As usually defined, the IC50 is the concentration needed to halve the response being measured.
